According to ChEMBL document CHEMBL3994622, “Design and synthesis of new RAF kinase-inhibiting antiproliferative quinoline derivatives. Part 2: Diarylurea derivatives” (Eur J Med Chem, 2017):

Experiments:
OVCAR-5 = assay: Growth inhibition of human OVCAR5 cells incubated for 48 hrs by sulforhodamine B assay; type: functional; settings: OVCAR-5, 48 h; for CC50: read-out: LC50 (the source's name)
UACC-62 = assay: Growth inhibition of human UACC62 cells assessed as cell growth at 10 uM incubated for 48 hrs by sulforhodamine B assay relative to control; type: functional; settings: UACC-62, 48 h, read-out: Activity
SF-295 [1] = assay: Growth inhibition of human SF295 cells assessed as cell growth at 10 uM incubated for 48 hrs by sulforhodamine B assay relative to control; type: functional; settings: SF-295, 48 h, read-out: Activity
SK-MEL-2 = assay: Growth inhibition of human SK-MEL-2 cells assessed as cell growth at 10 uM incubated for 48 hrs by sulforhodamine B assay relative to control; type: functional; settings: SK-MEL-2, 48 h, read-out: Activity
A549 = assay: Growth inhibition of human A549/ATCC cells assessed as cell growth at 10 uM incubated for 48 hrs by sulforhodamine B assay relative to control; type: functional; settings: A549, 48 h, read-out: Activity
UACC-257 = assay: Growth inhibition of human UACC257 cells incubated for 48 hrs by sulforhodamine B assay; type: functional; settings: UACC-257, 48 h; for CC50: read-out: LC50 (the source's name)
DU-145 [2] = assay: Growth inhibition of human DU145 cells assessed as cell growth at 10 uM incubated for 48 hrs by sulforhodamine B assay relative to control; type: functional; settings: DU-145, 48 h, read-out: Activity
M14 = assay: Growth inhibition of human M14 cells assessed as cell growth at 10 uM incubated for 48 hrs by sulforhodamine B assay relative to control; type: functional; settings: M14, 48 h, read-out: Activity
MDA-MB-231 = assay: Growth inhibition of human MDA-MB-231 cells assessed as cell growth at 10 uM incubated for 48 hrs by sulforhodamine B assay relative to control; type: functional; settings: MDA-MB-231, 48 h, read-out: Activity
A498 = assay: Growth inhibition of human A498 cells assessed as cell growth at 10 uM incubated for 48 hrs by sulforhodamine B assay relative to control; type: functional; settings: A498, 48 h, read-out: Activity
KM12 = assay: Growth inhibition of human KM12 cells assessed as cell growth at 10 uM incubated for 48 hrs by sulforhodamine B assay relative to control; type: functional; settings: KM12, 48 h, read-out: Activity
TK-10 = assay: Growth inhibition of human TK10 cells incubated for 48 hrs by sulforhodamine B assay; type: functional; settings: TK-10, 48 h; for CC50: read-out: LC50 (the source's name)
DU-145 [3] = assay: Growth inhibition of human DU145 cells incubated for 48 hrs by sulforhodamine B assay; type: functional; settings: DU-145, 48 h; for CC50: read-out: LC50 (the source's name)
LOX IMVI = assay: Growth inhibition of human LOXIMVI cells assessed as cell growth at 10 uM incubated for 48 hrs by sulforhodamine B assay relative to control; type: functional; settings: read-out: Activity
HCT-15 = assay: Growth inhibition of human HCT15 cells assessed as cell growth at 10 uM incubated for 48 hrs by sulforhodamine B assay relative to control; type: functional; settings: HCT-15, 48 h, read-out: Activity
RXF 393 = assay: Growth inhibition of human RXF393 cells assessed as cell growth at 10 uM incubated for 48 hrs by sulforhodamine B assay relative to control; type: functional; settings: RXF 393, 48 h, read-out: Activity
SF-295 [4] = assay: Growth inhibition of human SF295 cells incubated for 48 hrs by sulforhodamine B assay; type: functional; settings: SF-295, 48 h; for CC50: read-out: LC50 (the source's name)
SF-268 = assay: Growth inhibition of human SF268 cells assessed as cell growth at 10 uM incubated for 48 hrs by sulforhodamine B assay relative to control; type: functional; settings: SF-268, 48 h, read-out: Activity
786-0 = assay: Growth inhibition of human 786-0 cells assessed as cell growth at 10 uM incubated for 48 hrs by sulforhodamine B assay relative to control; type: functional; settings: 786-0, 48 h, read-out: Activity
SNB-19 = assay: Growth inhibition of human SNB19 cells assessed as cell growth at 10 uM incubated for 48 hrs by sulforhodamine B assay relative to control; type: functional; settings: SNB-19, 48 h, read-out: Activity
SW-620 = assay: Growth inhibition of human SW620 cells assessed as cell growth at 10 uM incubated for 48 hrs by sulforhodamine B assay relative to control; type: functional; settings: SW-620, 48 h, read-out: Activity
COLO 205 = assay: Growth inhibition of human COLO205 cells assessed as cell growth at 10 uM incubated for 48 hrs by sulforhodamine B assay relative to control; type: functional; settings: COLO 205, 48 h, read-out: Activity
EKVX = assay: Growth inhibition of human EKVX cells assessed as cell growth at 10 uM incubated for 48 hrs by sulforhodamine B assay relative to control; type: functional; settings: read-out: Activity
U-251 = assay: Growth inhibition of human U251 cells assessed as cell growth at 10 uM incubated for 48 hrs by sulforhodamine B assay relative to control; type: functional; settings: U-251, 48 h, read-out: Activity
SNB-75 = assay: Growth inhibition of human SNB75 cells assessed as cell growth at 10 uM incubated for 48 hrs by sulforhodamine B assay relative to control; type: functional; settings: SNB-75, 48 h, read-out: Activity
NCI-H522 = assay: Growth inhibition of human NCI-H522 cells incubated for 48 hrs by sulforhodamine B assay; type: functional; settings: NCI-H522, 48 h; for CC50: read-out: LC50 (the source's name)
HOP-92 = assay: Growth inhibition of human HOP92 cells assessed as cell growth at 10 uM incubated for 48 hrs by sulforhodamine B assay relative to control; type: functional; settings: HOP-92, 48 h, read-out: Activity
CCRF-CEM = assay: Growth inhibition of human CCRF-CEM cells assessed as cell growth at 10 uM incubated for 48 hrs by sulforhodamine B assay relative to control; type: functional; settings: read-out: Activity
HOP-62 = assay: Growth inhibition of human HOP62 cells incubated for 48 hrs by sulforhodamine B assay; type: functional; settings: HOP-62, 48 h; for CC50: read-out: LC50 (the source's name)
[5] = target: RAF proto-oncogene serine/threonine-protein kinase (Homo sapiens, UniProt P04049); assay: Inhibition of human c-RAF using MEK1 as substrate in presence of [33P]ATP by Hotspot assay
NCI/ADR-RES = assay: Growth inhibition of human NCI/ADR-RES cells assessed as cell growth at 10 uM incubated for 48 hrs by sulforhodamine B assay relative to control; type: functional; settings: read-out: Activity
RPMI-8226 = assay: Growth inhibition of human RPMI8226 cells assessed as cell growth at 10 uM incubated for 48 hrs by sulforhodamine B assay relative to control; type: functional; settings: RPMI-8226, 48 h, read-out: Activity
MOLT-4 = assay: Growth inhibition of human MOLT4 cells assessed as cell growth at 10 uM incubated for 48 hrs by sulforhodamine B assay relative to control; type: functional; settings: MOLT-4, 48 h, read-out: Activity

RAF proto-oncogene serine/threonine-protein kinase, sequence (P04049 whole entry): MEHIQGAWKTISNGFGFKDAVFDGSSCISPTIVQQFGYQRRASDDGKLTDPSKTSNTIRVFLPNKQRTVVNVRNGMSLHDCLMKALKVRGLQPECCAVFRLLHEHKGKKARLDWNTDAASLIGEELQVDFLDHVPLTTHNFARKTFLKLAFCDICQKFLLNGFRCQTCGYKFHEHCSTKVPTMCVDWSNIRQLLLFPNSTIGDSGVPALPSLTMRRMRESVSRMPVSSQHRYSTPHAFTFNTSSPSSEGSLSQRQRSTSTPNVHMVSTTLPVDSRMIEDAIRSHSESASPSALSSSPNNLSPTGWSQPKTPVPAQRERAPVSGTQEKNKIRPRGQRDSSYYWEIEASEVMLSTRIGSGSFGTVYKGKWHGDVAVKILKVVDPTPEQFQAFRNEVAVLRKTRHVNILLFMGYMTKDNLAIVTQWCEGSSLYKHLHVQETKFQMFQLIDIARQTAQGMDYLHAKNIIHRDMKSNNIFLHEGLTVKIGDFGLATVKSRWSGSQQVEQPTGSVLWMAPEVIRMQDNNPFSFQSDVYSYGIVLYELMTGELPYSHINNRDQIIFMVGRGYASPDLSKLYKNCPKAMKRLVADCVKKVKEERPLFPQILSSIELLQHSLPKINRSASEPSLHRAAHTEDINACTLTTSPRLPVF

COc1cc2cc(Oc3ccc(NC(=O)Nc4cc(C(F)(F)F)cc(C(F)(F)F)c4)cc3)c(C)nc2cc1OC
GI50 (OVCAR-5): 1.93 µM | TGI (OVCAR-5): 4.14 µM | CC50 (OVCAR-5): 8.88 µM | growth at 10 µM (UACC-62): -34.6% | growth at 10 µM (SF-295 [1]): -59.2% | growth at 10 µM (SK-MEL-2): -30.4% | growth at 10 µM (A549): 5.93% | GI50 (UACC-257): 2.48 µM | TGI (UACC-257): 5.49 µM | CC50 (UACC-257): 20 µM | growth at 10 µM (DU-145 [2]): 19.5% | growth at 10 µM (M14): 9.04% | growth at 10 µM (MDA-MB-231): -36.1% | growth at 10 µM (A498): -11.5% | growth at 10 µM (KM12): 5.61% | GI50 (TK-10): 2.32 µM | TGI (TK-10): 9.18 µM | CC50 (TK-10): 5.99 µM | GI50 (DU-145 [3]): 2.38 µM | TGI (DU-145 [3]): 9.36 µM | CC50 (DU-145 [3]): 8.06 µM | growth at 10 µM (LOX IMVI): 1.98% | growth at 10 µM (HCT-15): 2.75% | growth at 10 µM (RXF 393): -24.5% | GI50 (SF-295 [4]): 0.48 to 0.481 µM | TGI (SF-295 [4]): 1.94 µM | CC50 (SF-295 [4]): 5.71 µM | growth at 10 µM (SF-268): 15.3% | growth at 10 µM (786-0): -16.6% | growth at 10 µM (SNB-19): 15.5% | growth at 10 µM (SW-620): 15.9% | growth at 10 µM (COLO 205): -81.2% | growth at 10 µM (EKVX): 2.88% | growth at 10 µM (U-251): -26.5% | growth at 10 µM (SNB-75): 9.73% | GI50 (NCI-H522): 1.25 µM | TGI (NCI-H522): 2.95 µM | CC50 (NCI-H522): 6.95 µM | growth at 10 µM (HOP-92): -25.4% | growth at 10 µM (CCRF-CEM): 0.19% | GI50 (HOP-62): 1.35 µM | TGI (HOP-62): 2.88 µM | CC50 (HOP-62): 6.15 µM | IC50 [5]: 0.37 µM | growth at 10 µM (NCI/ADR-RES): 7.03% | growth at 10 µM (RPMI-8226): 1.15%

COc1cc2cc(Oc3ccc(NC(=O)Nc4ccc(C)cc4)cc3)c(C)nc2cc1OC
growth at 10 µM (UACC-62): 99.3% | growth at 10 µM (SF-295 [1]): 107% | growth at 10 µM (SK-MEL-2): 91.5% | growth at 10 µM (A549): 102% | growth at 10 µM (DU-145 [2]): 102% | growth at 10 µM (M14): 124% | growth at 10 µM (MDA-MB-231): 85.6% | growth at 10 µM (A498): 116% | growth at 10 µM (KM12): 104% | growth at 10 µM (LOX IMVI): 102% | growth at 10 µM (HCT-15): 103% | growth at 10 µM (RXF 393): 82.1% | growth at 10 µM (SF-268): 80.2% | growth at 10 µM (786-0): 126% | growth at 10 µM (SNB-19): 97.1% | growth at 10 µM (SW-620): 107% | growth at 10 µM (COLO 205): 111% | growth at 10 µM (EKVX): 107% | growth at 10 µM (U-251): 99.9% | growth at 10 µM (MOLT-4): 82.4% | growth at 10 µM (SNB-75): 56.3% | growth at 10 µM (CCRF-CEM): 101% | growth at 10 µM (NCI/ADR-RES): 107% | growth at 10 µM (RPMI-8226): 101%

Cc1nc2cc(O)c(O)cc2cc1Oc1ccc(NC(=O)Nc2ccc(Cl)c(Cl)c2)cc1
GI50 (OVCAR-5): 11.6 µM | TGI (OVCAR-5): 29.3 µM | CC50 (OVCAR-5): > 32.5 µM | growth at 10 µM (UACC-62): 84.5% | growth at 10 µM (SF-295 [1]): 95.9% | growth at 10 µM (SK-MEL-2): 77.7% | growth at 10 µM (A549): 50.5% | GI50 (UACC-257): 7.27 µM | TGI (UACC-257): 21.3 µM | CC50 (UACC-257): > 32.5 µM | growth at 10 µM (DU-145 [2]): 60.3% | growth at 10 µM (M14): 80.8% | growth at 10 µM (MDA-MB-231): 45% | growth at 10 µM (A498): 118% | growth at 10 µM (KM12): 74.7% | GI50 (TK-10): 14.2 µM | TGI (TK-10): > 32.5 µM | CC50 (TK-10): > 32.5 µM | GI50 (DU-145 [3]): 7.26 µM | TGI (DU-145 [3]): 25.2 µM | CC50 (DU-145 [3]): > 32.5 µM | growth at 10 µM (LOX IMVI): 0.46% | growth at 10 µM (HCT-15): 37.2% | growth at 10 µM (RXF 393): 20.4% | GI50 (SF-295 [4]): 11.4 µM | TGI (SF-295 [4]): > 32.5 µM | CC50 (SF-295 [4]): > 32.5 µM | growth at 10 µM (SF-268): 65.5% | growth at 10 µM (786-0): 103% | growth at 10 µM (SNB-19): 49% | growth at 10 µM (SW-620): 49.3% | growth at 10 µM (COLO 205): 34.7% | growth at 10 µM (EKVX): 98.5% | growth at 10 µM (U-251): 41.4% | growth at 10 µM (MOLT-4): 12.6% | growth at 10 µM (SNB-75): 75.8% | GI50 (NCI-H522): 4.43 µM | TGI (NCI-H522): 12.5 µM | CC50 (NCI-H522): > 32.5 µM | growth at 10 µM (HOP-92): 37.5% | growth at 10 µM (CCRF-CEM): 19.9% | GI50 (HOP-62): 8.62 µM | TGI (HOP-62): > 32.5 µM | CC50 (HOP-62): > 32.5 µM | growth at 10 µM (NCI/ADR-RES): 59% | growth at 10 µM (RPMI-8226): 75.7%
